Converted amounts (≈) assume the structure as drawn. Where a name gives a salt, the structure may show the parent alone. Marks after values point to notes of the source that are not given here.
Tests used:
[1] = Quantitative (thermodynamic) solubility determination, shake-flask, LCMS against calibration line; format: physicochemical; conditions: for solubility at 4 h: 25 °C, thermodynamic from solid; for Solubility in water: room temperature, suspensions stirred for 18 h, LCMS
Description: The thermodynamic solubility of Rabeximod free base (Form 1) was determined in 3 different USP buffers (50 mM) ranging from pH 1.2 to pH 7.4 and in water (Exp. ID: QSA21-24) by the shake-flask method at 25° C. (
Table ). Approximately 30 mg was added to approximately 1 ml of the selected buffer and the resulting suspension was equilibrated at RT for 4 hours under continuous stirring. After 15 min and after 4 h of stirring, the pH of the solution was recorded. Upon completion of the equilibration time, the suspensions were centrifuged. The solution was filtered and diluted before LCMS analysis to determine the API concentration in solution. The residue was dried under vacuum and the obtained dried solids were analyzed by XRPD. A standard LC calibration curve was prepared, and the diluted mother liquors were measured to determine the API concentration.
The solubility of the freebase (Form 1) and salts prepared by scale-up was determined in water at room temperature. Suspensions were stirred for 18 h after which the liquid phase was isolated and measured by LCMS against a calibration line. The solids were dried and measured by XRPD to determine the solid form. The lowest solubility was determined for the freebase (Form 1). The signal was lower than the calibration line and therefore the solubility was determined to be <0.005 mg/ml. […] The experimental details are described in table 5.
Table 5. Experimental details and results of the solubility determination for Rabeximod free base Form 1) as well as salt Mes1 in water and in 3 buffers with pH range 1.2-7.4. The pH of the solutions after 15 minutes and 4 hours are reported. The solubility was determined after 4h equilibration by measuring the liquid phase with LCMS against a calibration line.

[2] = Accelerated aging conditions (AAC), solid form remeasured by XRPD; format: physicochemical; conditions: 3 days at 40° C. and 75% RH
Description: All solids were exposed to AAC (40° C./75% RH for 3 days) and remeasured by HT-XRPD. After that, 750 μl of a selected solvent was added. The vials were transferred to a Crystal16™ parallel crystallizer and the suspensions were stirred at 750 rpm at 50° C. for 18h after which the suspensions were subjected to centrifugation and the solids were isolated, dried under vacuum (50° C., 5 mbar, 18 h) and analyzed by HT-XRPD. The experimental conditions and results are shown below in Table 1 and Table 2 for the first and second set of experiments, respectively. The obtained XRPD patterns for the crystallinesalts made are shown in FIGS. 1 (HCl), 2 (Mao) and 3 (Mes).
Experimental conditions and results of the hydrochloride and malonic acid salt crystallization experiments. In all experiments, 750 μl of solvent was used. Counterion (Cl) abbreviations denote pure counterions whereas counterions with a number denote novel salt forms. After subjecting suspensions of API:Cl to thermocycles, the solids were isolated, dried (5 mbar, 50° C., 18 h) and analyzed by XRPD. The liquid phases were dried, and the resulting solids were analyzed by XRPD. Most solids were subjected to AAC (40° C., 75% RH, 3 days) and remeasured by XRPD.

[3] = Qualitative solubility determination in water at room temperature (visual, water added until dissolved); format: physicochemical; conditions: for Solubility in water: RT, estimated by adding water to the salt until dissolved; for Dissolution in water (in words): room temperature
Description: The solubility of the salts in water at RT was estimated by adding water to the salt until the salt dissolved. […] From the TGMS data it was estimated whether the salts are stochiometric hydrates or not.
The solubility of a selection of salts from the salt screen was estimated at room temperature in water. To approximately 2 mg of salt, solvent aliquots were added in steps of 50 μl until the material was dissolved as observed visually by the naked eye.

[4] = Pharmacokinetic characterization after i.v. and p.o. administration to male CD-1 mice; format: in vivo; conditions: for CL as % of mouse liver blood flow: liver blood flow 120 ml/min/kg
Description: IV formulations were prepared on the day of dosing. The formulations were prepared by weighing the compound into brown glass vial; on the day of dosing ClinOleic 20% intravenous fat emulsion ([…], Tamro) was added into tubes (1,5 mg/mL in 20% ClinOleic). Formulations were homogenized 5 minutes before dosing. IV formulations were administered within 5 hours after preparation.
PO formulations were prepared day before administration. The formulations were prepared by formulating the test items in PO vehicle (6 mg/ml in 0.45% (v/v) Tween 80-0.11% (w/v) sodium carboxy methylcellulose (CMC) in tap water). The suspensions were mixed with vortex and stored refrigerated (+4° C.) over night. On the day of dosing formulations were homogenized 15 minutes before dosing.
Naïve animals were used in the study (see Table 6). They were housed in individually ventilated (IVC)-cages in groups of six mice. The cages were provided with aspen bedding (4HP and PM90L, Tapvei, Estonia) and paper strands (Sizzlenest, Datesand, UK) as nesting material, and a paper pulp cabin and red polycarbonate cylinder (Datesand, UK) as cage enrichment. The temperature (22±2° C.), humidity (55±10%) and air exchange rate (75 times/h) of the IVC-cages and 12/12-h light/dark cycle (500 lux lighting on at 6 a.m., 1.5 lux lighting […].) of the animal holding room were automatically controlled and maintained. Animals were allowed to acclimatize to the site for at least five days prior to the study. Animals had ad libitum access to food (SDS diets, RM1 (E) 801002, Special Diets Services, UK) and tap water at all times, and their welfare was assured with daily observations.
Study compounds were administered via the specified route and the times of dosing and blood sampling were recorded. Within 30 min following the sampling, the blood was centrifuged for plasma separation (room temperature; 10 min; 2700 G). The plasma samples were transferred into plastic tubes, frozen and stored at −20° C. until analysis. Clinical signs and general behavior of the animals were recorded, when necessary.
The pharmacokinetic parameters were calculated using Phoenix 64 (Build 6.4.0.768) WinNonlin (version 6.4) software, using non-compartmental methods (NCA). Nominal doses were used for all animals. The terminal phase half-life (T1/2) was calculated by least-squares regression analysis of the terminal linear part of the log concentration—time curve. The area under the plasma concentration—time curve (AUC) was determined with the linear trapezoidal rule for increasing values and log trapezoidal rule for decreasing values up to the last measurable concentration (AUC0-last), and extrapolation of the terminal elimination phase to infinity was used when possible; the following criteria were used:
Minimum of 3 points (not including Cmax) used to calculate lambda (with R^2 adjusted >0.85)
T1/2 shorter than the time-span used to calculate lambda
The maximum plasma concentration (Cmax) and the time to reach Cmax (tmax) were derived directly from the plasma concentration data.

[5] = Dynamic vapor sorption (hygroscopicity / moisture sorption); format: physicochemical
Description: Differences in hygroscopicity (moisture uptake) of the various forms of a solid material provided a measure of their relative stability at increasing relative humidity. Moisture sorption isotherms of small samples were obtained using a DVS-1 system from Surface Measurement Systems (London, UK); this instrument is suitable for use with a few milligrams of sample, with an accuracy of 0.1 μg. The relative humidity was varied during sorption-desorption-sorption (40-95-0-40% RH) at a constant temperature of 25° C. Weight equilibration per step was set at dm/dt <0.0002 mg/min for a minimum of 1 hour or maximum of 6 hours. Afterwards the sample was measured by HT-XRPD.
The hygroscopicity was classified according to the European Pharmacopoeia Hygroscopicity classification. Water uptake percentage at 25° C./80%RH (24h) is:
Change in mass <0.2%—Non-hygroscopic
Change in mass >2% & <15%—Moderately hygroscopic
Change in mass >15%—Very hygroscopic

[6] = i.v., 3.00 mg/kg, male CD1 mice
[7] = male, CD-1, mouse, plasma, po, 30 mg/kg, male CD1 mice
[8] = p.o., 30.0 mg/kg, male CD1 mice
[9] = male, CD-1, mouse, plasma, iv, 3 mg/kg, male CD1 mice

| Salt form after AAC [2] | Solubility in water [3] | AUC0-inf [4, 6] | T1/2 [4, 6] | Time of peak plasma concentration (tmax) [4, 6] | Vss [4, 6] | clearance [4, 6] | mean C0 [4, 6] | mean Cmax [4, 6] | CL as % of mouse liver blood flow ([4]; i.v., 3.00 mg/kg) | AUC0-last [4, 8] | Time of peak plasma concentration (tmax) [4, 8] | mean Cmax [4, 8] | Structure (SMILES) | also measured |
| --- | --- | --- | --- | --- | --- | --- | --- | --- | --- | --- | --- | --- | --- | --- |
| Mes | 13300 µg/mL | 2320 ng·h/mL | 9.80 h | 0.0833 h | 15.9 L/kg | 21.5 mL/min/kg | 507 ng/mL | 383 ng/mL | 17.9% | 11 600 h*ng/ml | 2.00 h | 707 ng/mL | Cc1cc2nc3c4cc(Cl)ccc4n(CC(=O)NCCN(C)C)c3nc2cc1C [Rabeximod Mes] | Solubility ([1]; medium HCl, pH buffer 1.2, 4 h equilibration, listed as Mes (TCS35)): 0.014 mg/mL (≈ 34.2 µM); Solubility ([1]; medium phosphate buffer, pH buffer 6.5, 4 h equilibration, listed as Mes (TCS35)): 0.042 mg/mL (≈ 102 µM); Solubility ([1]; medium water, listed as Mes (TCS35)): 13.26 mg/mL (≈ 32300 µM); solubility at 4 h ([1]; phosphate buffer, pH 7.4, aqueous buffer, medium phosphate buffer, pH buffer 7.4, 4 h equilibration): 3 µg/mL (≈ 7.32 µM); Solubility in water ([1]; listed as Mes1): 13300 µg/mL (≈ 32400 µM); half-life [4, 7]: 8.93 h; Water uptake ([5]; DVS, 25° C.): 12.2%; Form after DVS ([5]; sorption-desorption-sorption 40-95-0-40% RH, 25° C., HT-XRPD): Mes1 |
| HCl | 2000 to 5700 µg/mL | 2220 ng·h/mL | 8.43 h | 0.0833 h | 14.2 L/kg | 22.6 mL/min/kg | 600 ng/mL | 454 ng/mL | 18.8% | 13 700 h*ng/ml | 4.00 h | 893 ng/mL | Cc1cc2nc3c4cc(Cl)ccc4n(CC(=O)NCCN(C)C)c3nc2cc1C [Rabeximod HCl] | Solubility ([1]; medium water, listed as HCI (TCS160)): 5.45 mg/mL; Solubility in water ([1]; listed as HCl1): 5500 µg/mL |
|  |  | 681 ng·h/mL |  |  | 49.4 L/kg | 73.4 mL/min/kg |  | 150 ng/mL | 61.2% |  | 4.00 h |  | Cc1cc2nc3c4cc(Cl)ccc4n(CC(=O)NCCN(C)C)c3nc2cc1C [Rabeximod, 9-Chloro-2,3-dimethyl-6-(N,N-dimethylaminoethylamino-2-oxoethyl)-6H-indolo-[2,3-b]quinoxaline] | solubility at 4 h ([1]; HCl buffer, pH 1.2, simulated gastric fluid, medium HCl, pH buffer 1.2, 4 h equilibration): 13 µg/mL (≈ 31.7 µM); Solubility ([1]; medium phosphate buffer, pH buffer 6.5, 4 h equilibration, listed as Form 1 (SM)): 0.005* mg/ml; Solubility ([1]; medium phosphate buffer, pH buffer 7.4, 4 h equilibration, listed as Form 1 (SM)): <LOD; Solubility ([1]; medium water, listed as Form 1 (SM)): <0.005 mg/mL; Solubility in water ([1]; listed as freebase): < 5 µg/mL; Dissolution in water (in words) [3]: close to insoluble in water; Dissolution in water (in words) ([3]; listed as freebase): no sign of dissolution; Tmax ([4]; male, CD-1, mouse, plasma, iv, 3 mg/kg, i.v., 3.00 mg/kg, male CD1 mice, read-out: Time of peak plasma concentration (tmax)): 5 min; C0 [4, 9]: 351 ng/mL; half-life [4, 9]: 8.99 h; AUC(0-t) [4, 7]: 8330 ng·h/mL; Cmax [4, 7]: 728 ng/mL; Physical stability upon exposure to relative humidity ([5]; relative humidity values between 0-95%): remained physically stable; Hygroscopicity classification (European Pharmacopoeia) ([5]; water uptake at 25° C./80%RH): slightly hygroscopic |
| Mao | 5500 to 10200 µg/mL | 1870 ng·h/mL | 8.43 h | 0.0833 h | 16.9 L/kg | 26.8 mL/min/kg | 390 ng/mL | 355 ng/mL | 22.3% | 11 400 h*ng/ml | 0.17 h | 1140 ng/mL | Cc1cc2nc3c4cc(Cl)ccc4n(CC(=O)NCCN(C)C)c3nc2cc1C [Rabeximod Mao] | Solubility ([1]; medium water, listed as Mao (TCS161)): 5.26 mg/mL (≈ 12800 µM); Solubility in water ([1]; listed as Mao1): 5300 µg/mL (≈ 12900 µM) |

Source: patent US11643415B1, “Rabeximod compounds” (CYXONE AB, priority 2021, dated 2023)
